Experimental data as given in patent publication US20230226133A1, “METHOD FOR EXTRACTING CERAMIDE-CONTAINING MATERIAL OR CERAMIDE FROM WHOLE APPLES AND/OR APPLE JUICE EXTRACTION RESIDUE, AND COMPOSITION INCLUDING SAID CERAMIDE” (priority 2020, published 2023).

Columns and labels:
[1] = tested on: MEK/ERK signaling system in PC-12 cells; experiment: MEK-ERK signaling system in neural model cells with MEK inhibitor (western blot); assay type: cell-based, rat; conditions: UO126 10 μM added 30 minutes before 30 μg/mL ceramide-containing matter
Description: An inhibitor of MEK that was the upstream kinase of extracellular signal-regulated kinase (ERK1/2) was used to make an estimation of the effect of the ceramide-containing matter on the MEK/ERK signaling system in PC-12 cells. The PC-12 cells were cultured in a D-MEM culture medium containing 5% bovine serum and 5% horse serum. The MEK inhibitor UO126 was dissolved in dimethyl-sulfoxide (DMSO), and the resulting solution was added to the cells in such an amount as to give 10 μM, and 30 minutes after that, the ceramide-containing matter dissolved in DMSO was added to the cells in such an amount as to give 30 μg/mL for 10-minute culture. After culture, the cells were collected for estimation of the phosphorylation ERK1/2 (phospho ERK1/2) level important for memory formation by means of the western blot method using anti-phospho ERK1/2 antibody and/or anti-total ERK1/2 antibody. Note here that a sample treated with nobiletin (30 μM) was used as a positive control.

[2] = tested on: memory impairment caused by NMDA receptor blocker MK-801; experiment: Passive avoidance test in MK-801 dementia model mice; assay type: in vivo; conditions: MK-801 alone, 0.2 mg/kg body weight subcutaneous, DDY mice
Description: In this example, passive avoidance tests using dementia model mice having MK-801 administered thereto were carried out for estimation of effects of the ceramide-containing matter on memory impairments.
More specifically, 7 week old male DDY mice (available from Japan SLC, Inc.) were pre-fed for experimentation. The ceramide-containing matter suspended in an aqueous solution of 0.5% carboxymethyl cellulose sodium (CMC) was orally administrated to the mice once per day in a dose of 100 mg/kg body weight or 500 mg/kg body weight for six days. At the 7th and 8th days from the onset of administration, training and retention trials of passive avoidance testing were carried out. Ninety (90) minutes before the training trial of passive avoidance testing, 100 mg/kg body weight or 500 mg/kg body weight of the ceramide-containing matter or an aqueous solution of solvent 0.5% CMC were orally administrated to the mice, followed by subcutaneous administration of non-competitive NMDA receptor blocker MK-801 (0.2 mg/kg body weight) or a physiological saline solution 60-minute later. Thirty (30) minutes after that, training trial of passive avoidance testing was carried out, and after the elapse of 24 hours, retention testing was carried out. […]

| SMILES | rise of ERK1/2 phosphorylation level caused by the ceramide-containing matter, after MEK inhibitor pretreatment [1] | reaction latency in retention trial versus solvent control group [2] |
| --- | --- | --- |
| N#CC(=C(/N)Sc1ccccc1N)/C(C#N)=C(/N)Sc1ccccc1N [UO126] | kept low | – |
| C[C@]12N[C@H](Cc3ccccc31)c1ccccc12 [MK-801] | – | significantly lower in the reaction latency |
